Values quoted from earlier work, collected in patent US20190008969A1, “COMPOSITIONS FOR DRUG DELIVERY” (Tioga Research, Inc., priority 2017, published 2019).

Conditions: spray format at 0.25 wt %

C[C@@H]1C[C@H]2[C@@H]3CCC4=CC(=O)C=C[C@]4(C)[C@@]3(F)[C@@H](O)C[C@]2(C)[C@H]1C(=O)CO [desoximetasone, (8S,9S,10S,11S,13S,14S,16R,17S)-9-fluoro-11-hydroxy-17-(2-hydroxyacetyl)-10,13,16-trirmethyl-7,8,11,12,14,15,16,17-octahydro-6H-cyclopenta[a]phenanthren-3-one]
Efficacy in treating psoriasis: efficacious
Safety in treating psoriasis: safe
